Experimental data published in paper doi:10.1101/2025.01.28.635346v1 (bioRxiv, 2025).
pEC50, pIC50: −log10 of the molar value. Bridge positions count the residues as written; N and C are the ends. Side chains are listed from the residue outwards. Peptide text beside a SMILES is read from it. * marks the point of attachment. Butanoyl(4-(4-I-phenyl)) = O=C(CCCc1ccc(I)cc1)*; PEG2 = NCCOCCOCCC(=O)O

How the values were obtained:
PDE4D2 = PDE4D2 (Homo sapiens, UniProt Q08499); experiment: Safetyscan47 Non-Kinase Enzymes Enzymatic, Inhibitor; type: biochemical; settings: for Emax: read-out: Max Response
nAChR(a4/b2) = nAChR(a4/b2) (Homo sapiens, UniProt P17787+P43681); experiment: Safetyscan47 Ion Channel, Opener; type: cell-based; settings: for Emax: read-out: Max Response
SERT = SERT (Homo sapiens, UniProt P31645); experiment: Safetyscan47 Transporter, Blocker; type: cell-based; settings: for Emax: read-out: Max Response
HRH1 = HRH1 (Homo sapiens, UniProt P35367); experiment: Safetyscan47 GPCR Calcium Flux, Antagonist; type: cell-based; settings: for Emax: read-out: Max Response
GR = target: T1, GR (Homo sapiens, UniProt P04150); experiment: Safetyscan47 NHR Protein Interaction, Agonist; type: cell-based; settings: for Emax: read-out: Max Response
T1 sequence (P04150 1-777): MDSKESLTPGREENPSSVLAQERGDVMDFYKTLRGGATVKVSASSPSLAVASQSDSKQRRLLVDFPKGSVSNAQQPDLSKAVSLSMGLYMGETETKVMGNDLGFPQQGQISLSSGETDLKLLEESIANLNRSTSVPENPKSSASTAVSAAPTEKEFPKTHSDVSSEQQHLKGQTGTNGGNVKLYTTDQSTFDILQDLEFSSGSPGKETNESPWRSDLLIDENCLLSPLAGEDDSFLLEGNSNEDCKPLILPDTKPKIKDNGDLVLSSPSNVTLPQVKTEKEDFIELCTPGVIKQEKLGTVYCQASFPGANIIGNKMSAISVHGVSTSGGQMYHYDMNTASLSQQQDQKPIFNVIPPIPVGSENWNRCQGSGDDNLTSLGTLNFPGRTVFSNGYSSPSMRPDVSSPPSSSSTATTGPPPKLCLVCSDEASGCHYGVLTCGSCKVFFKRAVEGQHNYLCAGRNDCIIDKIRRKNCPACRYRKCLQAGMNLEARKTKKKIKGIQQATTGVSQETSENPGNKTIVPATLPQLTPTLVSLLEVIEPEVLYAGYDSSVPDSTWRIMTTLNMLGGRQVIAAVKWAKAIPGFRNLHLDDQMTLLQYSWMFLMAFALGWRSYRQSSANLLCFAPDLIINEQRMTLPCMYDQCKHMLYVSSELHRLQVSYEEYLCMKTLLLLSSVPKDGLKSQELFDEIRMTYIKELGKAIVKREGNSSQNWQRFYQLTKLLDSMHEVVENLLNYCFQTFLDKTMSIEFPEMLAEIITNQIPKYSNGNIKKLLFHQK

COX2 = target: T2, COX2 (Homo sapiens, UniProt P35354); experiment: Safetyscan47 Non-Kinase Enzymes Enzymatic, Inhibitor; type: biochemical; settings: for Emax: read-out: Max Response
T2 sequence (P35354 18-604): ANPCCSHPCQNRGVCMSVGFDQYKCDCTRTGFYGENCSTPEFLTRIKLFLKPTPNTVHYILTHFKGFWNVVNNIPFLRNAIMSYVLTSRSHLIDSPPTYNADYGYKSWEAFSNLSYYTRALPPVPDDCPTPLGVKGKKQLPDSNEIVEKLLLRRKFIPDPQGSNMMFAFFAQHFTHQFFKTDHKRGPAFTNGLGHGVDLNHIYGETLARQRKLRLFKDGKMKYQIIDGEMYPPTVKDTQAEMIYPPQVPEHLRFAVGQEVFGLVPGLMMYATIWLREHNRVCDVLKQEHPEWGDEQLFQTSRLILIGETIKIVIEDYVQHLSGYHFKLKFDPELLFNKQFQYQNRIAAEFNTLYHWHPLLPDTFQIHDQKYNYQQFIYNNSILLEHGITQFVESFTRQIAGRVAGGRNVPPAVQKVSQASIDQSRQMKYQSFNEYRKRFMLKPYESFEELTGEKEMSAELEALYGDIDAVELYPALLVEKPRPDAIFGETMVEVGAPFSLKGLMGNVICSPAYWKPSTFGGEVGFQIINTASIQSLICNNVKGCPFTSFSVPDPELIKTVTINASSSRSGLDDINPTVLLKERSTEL

CHRM2 = target: T3, CHRM2 (Homo sapiens, UniProt P08172); experiment: Safetyscan47 GPCR cAMP, Antagonist; type: cell-based; settings: for Emax: read-out: Max Response
T3 sequence (P08172 1-466): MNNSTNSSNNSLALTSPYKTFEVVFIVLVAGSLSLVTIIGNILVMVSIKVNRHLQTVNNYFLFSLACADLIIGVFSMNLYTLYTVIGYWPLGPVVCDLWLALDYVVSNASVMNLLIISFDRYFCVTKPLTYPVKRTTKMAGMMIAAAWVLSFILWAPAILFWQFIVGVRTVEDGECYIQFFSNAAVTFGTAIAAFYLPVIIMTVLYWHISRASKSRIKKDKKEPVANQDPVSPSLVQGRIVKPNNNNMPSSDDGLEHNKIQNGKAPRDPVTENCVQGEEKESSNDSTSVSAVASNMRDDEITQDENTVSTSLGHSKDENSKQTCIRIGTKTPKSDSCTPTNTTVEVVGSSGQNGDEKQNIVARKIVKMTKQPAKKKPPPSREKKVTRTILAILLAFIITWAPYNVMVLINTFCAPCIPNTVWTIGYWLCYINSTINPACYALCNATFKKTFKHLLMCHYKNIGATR

ADRB1 = ADRB1 (Homo sapiens, UniProt P08588); experiment: Safetyscan47 GPCR cAMP, Antagonist; type: cell-based; settings: for Emax: read-out: Max Response
[1] = Plasma stability, human plasma; type: in vitro ADME
LCK = LCK (Homo sapiens, UniProt P06239); experiment: Safetyscan47 Kinases Binding, Inhibitor; settings: for Emax: read-out: Max Response
COX1 = COX1 (Homo sapiens, UniProt P23219); experiment: Safetyscan47 Non-Kinase Enzymes Enzymatic, Inhibitor; type: biochemical; settings: for Emax: read-out: Max Response
NMDAR (1A/2B) = NMDAR (1A/2B) (Homo sapiens, UniProt Q05586+Q13224); experiment: Safetyscan47 Ion Channel, Blocker; type: cell-based; settings: for Emax: read-out: Max Response
DRD1 = DRD1 (Homo sapiens, UniProt P21728); experiment: Safetyscan47 GPCR cAMP, Antagonist; type: cell-based; settings: for Emax: read-out: Max Response

Chain of nAChR(a4/b2) (P43681 29-627 limits assumed): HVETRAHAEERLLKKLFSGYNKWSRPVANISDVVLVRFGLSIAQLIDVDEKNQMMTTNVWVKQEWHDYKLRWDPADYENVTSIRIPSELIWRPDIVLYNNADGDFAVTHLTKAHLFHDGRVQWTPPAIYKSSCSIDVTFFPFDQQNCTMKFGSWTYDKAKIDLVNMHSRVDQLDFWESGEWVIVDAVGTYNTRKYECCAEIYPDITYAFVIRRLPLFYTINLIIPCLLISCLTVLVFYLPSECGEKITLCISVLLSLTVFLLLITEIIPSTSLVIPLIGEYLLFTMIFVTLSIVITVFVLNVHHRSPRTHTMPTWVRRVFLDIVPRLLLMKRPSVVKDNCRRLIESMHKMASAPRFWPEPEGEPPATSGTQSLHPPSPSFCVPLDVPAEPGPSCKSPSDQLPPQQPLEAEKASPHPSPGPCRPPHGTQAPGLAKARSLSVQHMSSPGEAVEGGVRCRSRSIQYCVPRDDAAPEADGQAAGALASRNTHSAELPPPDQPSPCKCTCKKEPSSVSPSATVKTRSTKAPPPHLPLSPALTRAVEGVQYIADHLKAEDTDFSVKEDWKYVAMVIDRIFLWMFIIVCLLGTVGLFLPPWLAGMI
Chain of nAChR(a4/b2) (P17787 26-502): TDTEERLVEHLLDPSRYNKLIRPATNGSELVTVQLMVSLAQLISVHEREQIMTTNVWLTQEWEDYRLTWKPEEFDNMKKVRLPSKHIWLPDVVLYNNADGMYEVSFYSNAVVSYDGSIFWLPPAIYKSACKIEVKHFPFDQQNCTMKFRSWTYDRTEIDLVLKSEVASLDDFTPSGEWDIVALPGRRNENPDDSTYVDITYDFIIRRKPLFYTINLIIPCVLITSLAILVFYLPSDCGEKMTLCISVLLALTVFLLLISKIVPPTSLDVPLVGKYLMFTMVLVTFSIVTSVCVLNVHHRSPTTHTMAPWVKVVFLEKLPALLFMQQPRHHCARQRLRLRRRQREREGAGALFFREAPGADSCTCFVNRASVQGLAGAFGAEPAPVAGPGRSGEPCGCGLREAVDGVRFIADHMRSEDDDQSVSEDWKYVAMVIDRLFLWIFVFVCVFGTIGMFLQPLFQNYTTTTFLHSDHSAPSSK
Chain of LCK (P06239 whole entry): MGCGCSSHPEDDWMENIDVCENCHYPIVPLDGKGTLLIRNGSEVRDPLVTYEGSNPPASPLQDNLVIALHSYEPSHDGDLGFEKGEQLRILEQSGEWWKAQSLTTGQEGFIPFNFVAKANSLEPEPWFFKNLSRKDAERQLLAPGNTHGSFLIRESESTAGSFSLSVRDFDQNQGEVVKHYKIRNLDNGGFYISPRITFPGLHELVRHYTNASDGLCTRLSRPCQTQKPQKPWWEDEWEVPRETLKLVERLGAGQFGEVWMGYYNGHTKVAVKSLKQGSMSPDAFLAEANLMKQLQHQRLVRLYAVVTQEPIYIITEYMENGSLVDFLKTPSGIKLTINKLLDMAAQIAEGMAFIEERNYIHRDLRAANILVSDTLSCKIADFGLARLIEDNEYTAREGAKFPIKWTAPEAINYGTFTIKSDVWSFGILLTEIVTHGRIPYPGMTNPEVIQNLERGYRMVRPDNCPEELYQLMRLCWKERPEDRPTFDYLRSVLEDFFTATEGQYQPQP
Chain of ADRB1 (P08588 whole entry): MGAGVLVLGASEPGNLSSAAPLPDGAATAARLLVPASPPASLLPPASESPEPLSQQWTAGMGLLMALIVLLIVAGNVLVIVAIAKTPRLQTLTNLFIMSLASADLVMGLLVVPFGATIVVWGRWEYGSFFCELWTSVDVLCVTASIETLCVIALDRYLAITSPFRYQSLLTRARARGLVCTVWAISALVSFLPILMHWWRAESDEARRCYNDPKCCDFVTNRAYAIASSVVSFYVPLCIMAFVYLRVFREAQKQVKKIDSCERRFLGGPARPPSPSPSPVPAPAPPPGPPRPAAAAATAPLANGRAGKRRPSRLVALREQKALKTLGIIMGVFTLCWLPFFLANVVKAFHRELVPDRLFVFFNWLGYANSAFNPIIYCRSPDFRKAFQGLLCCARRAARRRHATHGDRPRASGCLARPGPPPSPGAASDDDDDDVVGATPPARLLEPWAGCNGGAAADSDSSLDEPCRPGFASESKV
Chain of NMDAR (1A/2B) (Q13224 27-1484, other chains not shown): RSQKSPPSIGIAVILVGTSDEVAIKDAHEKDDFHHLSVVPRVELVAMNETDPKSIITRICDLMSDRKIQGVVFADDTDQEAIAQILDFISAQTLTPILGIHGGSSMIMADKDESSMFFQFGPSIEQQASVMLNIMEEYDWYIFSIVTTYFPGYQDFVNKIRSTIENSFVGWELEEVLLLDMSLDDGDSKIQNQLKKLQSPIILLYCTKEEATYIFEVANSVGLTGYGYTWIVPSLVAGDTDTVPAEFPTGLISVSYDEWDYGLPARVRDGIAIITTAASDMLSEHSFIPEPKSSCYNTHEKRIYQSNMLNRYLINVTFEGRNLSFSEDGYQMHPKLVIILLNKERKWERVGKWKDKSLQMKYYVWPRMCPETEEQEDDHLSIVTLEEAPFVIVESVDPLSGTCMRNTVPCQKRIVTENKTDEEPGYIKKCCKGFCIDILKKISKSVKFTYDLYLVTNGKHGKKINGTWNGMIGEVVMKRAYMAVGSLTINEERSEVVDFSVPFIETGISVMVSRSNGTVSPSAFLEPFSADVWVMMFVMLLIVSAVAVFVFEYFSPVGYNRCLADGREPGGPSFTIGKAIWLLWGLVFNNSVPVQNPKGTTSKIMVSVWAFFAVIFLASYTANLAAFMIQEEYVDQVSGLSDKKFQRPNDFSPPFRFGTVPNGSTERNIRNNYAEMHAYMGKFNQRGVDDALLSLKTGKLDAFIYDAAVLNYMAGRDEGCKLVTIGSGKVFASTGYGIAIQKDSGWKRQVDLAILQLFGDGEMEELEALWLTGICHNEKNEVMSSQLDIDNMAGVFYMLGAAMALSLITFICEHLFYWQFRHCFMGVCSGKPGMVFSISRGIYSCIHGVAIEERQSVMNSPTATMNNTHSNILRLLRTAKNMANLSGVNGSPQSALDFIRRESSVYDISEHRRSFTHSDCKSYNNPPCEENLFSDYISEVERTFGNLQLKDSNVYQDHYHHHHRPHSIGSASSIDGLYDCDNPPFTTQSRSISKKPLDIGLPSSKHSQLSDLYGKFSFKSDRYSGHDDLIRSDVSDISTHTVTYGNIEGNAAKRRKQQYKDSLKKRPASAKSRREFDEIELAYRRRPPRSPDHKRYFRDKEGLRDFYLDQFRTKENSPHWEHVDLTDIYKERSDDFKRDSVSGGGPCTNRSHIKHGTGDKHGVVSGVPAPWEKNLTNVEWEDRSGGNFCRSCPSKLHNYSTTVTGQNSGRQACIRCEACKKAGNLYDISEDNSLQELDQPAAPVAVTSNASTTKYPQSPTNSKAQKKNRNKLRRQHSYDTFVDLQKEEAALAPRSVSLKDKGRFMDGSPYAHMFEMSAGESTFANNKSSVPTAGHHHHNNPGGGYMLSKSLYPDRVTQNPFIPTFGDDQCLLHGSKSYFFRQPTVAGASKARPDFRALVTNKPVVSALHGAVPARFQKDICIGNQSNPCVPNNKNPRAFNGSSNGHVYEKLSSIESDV
Chain of HRH1 (P35367 whole entry): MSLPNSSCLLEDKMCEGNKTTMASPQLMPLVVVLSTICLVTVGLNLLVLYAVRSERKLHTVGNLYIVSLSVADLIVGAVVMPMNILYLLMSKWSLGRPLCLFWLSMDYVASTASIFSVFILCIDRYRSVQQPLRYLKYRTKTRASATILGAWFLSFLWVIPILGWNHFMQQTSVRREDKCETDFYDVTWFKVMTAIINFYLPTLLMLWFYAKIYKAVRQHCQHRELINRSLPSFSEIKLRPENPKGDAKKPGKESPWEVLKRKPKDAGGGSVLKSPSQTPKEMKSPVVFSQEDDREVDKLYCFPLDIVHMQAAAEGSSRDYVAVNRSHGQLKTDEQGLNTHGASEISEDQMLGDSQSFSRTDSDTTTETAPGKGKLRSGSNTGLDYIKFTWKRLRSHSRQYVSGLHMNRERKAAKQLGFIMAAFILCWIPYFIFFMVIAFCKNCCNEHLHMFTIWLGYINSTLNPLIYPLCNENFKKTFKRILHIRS
Chain of SERT (P31645 whole entry): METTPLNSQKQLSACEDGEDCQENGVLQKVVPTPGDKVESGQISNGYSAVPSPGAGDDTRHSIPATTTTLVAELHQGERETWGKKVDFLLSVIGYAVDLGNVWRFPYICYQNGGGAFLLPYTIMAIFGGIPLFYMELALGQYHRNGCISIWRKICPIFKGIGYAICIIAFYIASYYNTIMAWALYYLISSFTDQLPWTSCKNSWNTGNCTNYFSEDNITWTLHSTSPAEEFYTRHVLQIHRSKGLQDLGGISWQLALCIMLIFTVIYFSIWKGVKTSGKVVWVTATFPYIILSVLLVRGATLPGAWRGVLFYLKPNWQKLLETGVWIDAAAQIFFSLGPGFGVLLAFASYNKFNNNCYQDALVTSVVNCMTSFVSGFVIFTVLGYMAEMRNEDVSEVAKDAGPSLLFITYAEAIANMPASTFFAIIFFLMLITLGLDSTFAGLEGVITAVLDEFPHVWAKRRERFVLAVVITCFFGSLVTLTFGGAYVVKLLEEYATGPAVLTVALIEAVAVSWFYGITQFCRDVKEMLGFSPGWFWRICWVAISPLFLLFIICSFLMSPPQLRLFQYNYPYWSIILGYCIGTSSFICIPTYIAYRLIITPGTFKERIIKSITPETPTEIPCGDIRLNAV

SMILES | pIC50 (PDE4D2) | Emax (PDE4D2) [%] | pEC50 (nAChR(a4/b2)) | Emax (nAChR(a4/b2)) [%] | pIC50 (SERT) | Emax (SERT) [%] | pIC50 (HRH1) | Emax (HRH1) [%] | pEC50 (GR) | Emax (GR) [%] | pIC50 (COX2) | Emax (COX2) [%] | pIC50 (CHRM2) | Emax (CHRM2) [%] | pIC50 (ADRB1) | Emax (ADRB1) [%] | remaining at 0.5 h, 2 μM [1] [%] | remaining at 4 h, 2 μM [1] [%] | pIC50 (LCK) | Emax (LCK) [%] | other results
CC[C@H](C)[C@H](NC(=O)[C@H](CC(C)C)NC(=O)[C@H](CC(=O)O)NC(=O)CNC(=O)[C@H](CCCNC(=N)N)NC(=O)[C@@H](NC(=O)[C@H](Cc1ccccc1)NC(=O)[C@H](Cc1ccc(O)cc1)NC(=O)[C@@H]1CCC(=O)NCC(=O)NCC(=O)N[C@@H](CCCNC(=N)N)C(=O)NCC(=O)N[C@@H](Cc2c[nH]cn2)C(=O)N[C@@H](C(C)C)C(=O)N2CCC[C@H]2C(=O)N1)C(C)C)C(=O)N[C@@H](CO)C(=O)N[C@@H](Cc1ccccc1)C(=O)N[C@@H](Cc1ccc(O)cc1)C(=O)N[C@@H](CCCCN)C(=O)O [lassotide 36] (GGRGHVPEYFVRGDLISFYK-OH; lactam N-8) | < 4.35 | 0 | < 4.35 | 11 | < 4.35 | 17.5 | < 4.35 | 0.3 | < 4.35 | 0 | < 4.35 | 26.5 | < 4.35 | 0 | < 4.35 | 15.6 | 91.9 | 93.2 | < 4.35 | 0 | pIC50 (COX1): < 4.35; Emax (COX1): 21%; pIC50 (NMDAR (1A/2B)): < 4.35; Emax (NMDAR (1A/2B)): 0%; pIC50 (DRD1): < 4.35; Emax (DRD1): 11.1%
CC[C@H](C)[C@H](NC(=O)[C@H](CC(C)C)NC(=O)[C@H](CC(=O)O)NC(=O)CNC(=O)[C@H](CCCNC(=N)N)NC(=O)[C@@H](NC(=O)[C@H](Cc1ccccc1)NC(=O)[C@H](Cc1ccc(O)cc1)NC(=O)[C@@H]1CCC(=O)NCC(=O)NCC(=O)N[C@@H](CCCNC(=N)N)C(=O)NCC(=O)N[C@@H](Cc2c[nH]cn2)C(=O)N[C@@H](C(C)C)C(=O)N2CCC[C@H]2C(=O)N1)C(C)C)C(=O)N[C@@H](CO)C(=O)N[C@@H](Cc1ccccc1)C(=O)N[C@@H](Cc1ccc(O)cc1)C(=O)N[C@@H](CCCCNC(=O)CCOCCOCCNC(=O)CCCc1ccc(I)cc1)C(=O)O [lassotide 47] (GGRGHVPEYFVRGDLISFYK([PEG2-Butanoyl(4-(4-I-phenyl))])-OH; lactam N-8) | < 4.35 | 28.5 | < 4.35 | 0 | < 4.35 | 22.5 | < 4.35 | 0 | < 4.35 | 0 | < 4.35 | 18.7 | < 4.35 | 0 | < 4.35 | 40 | 95.1 | 92.2 | < 4.35 | 0 | pIC50 (COX1): < 4.35; Emax (COX1): 19.4%; pIC50 (NMDAR (1A/2B)): < 4.35; Emax (NMDAR (1A/2B)): 0%; pIC50 (DRD1): < 4.35; Emax (DRD1): 35.1%
